Experimental data from article PMC8753592, “Long-acting capsid inhibitor protects macaques from repeat SHIV challenges” (Nature, 2021).

Legend:
[1] = Pilot pharmacokinetic study, single subcutaneous administration; conditions: male, Indian origin, rhesus monkey, in vivo; for concentration at 0.43 weeks: 0.43 weeks post dose; for concentration at 0.57 weeks: 0.57 weeks post dose; for concentration at 1 week: 1 week post dose; for concentration at 4 weeks: 4 weeks post dose; for concentration at 8 weeks: 8 weeks post dose; for concentration at 10 weeks: 10 weeks post dose
Procedure: All study protocols were reviewed and approved by the Covance Laboratories Institutional Animal Care and Use Committee (IACUC).
Rhesus plasma samples were stored frozen at −80 °C. For analysis, the samples were thawed, and a 50-µl aliquot of each sample was treated with 200 µl acetonitrile containing a generic internal small-molecule standard. After precipitation of the protein component, a 100-µl aliquot of the supernatant was transferred to a clean 96-well plate and was mixed with 200 µl water. A 20-μl aliquot of the above solution was then injected into a Q-Exactive high-resolution mass spectrometer (Thermo Scientific) with electrospray ionization in positive mode. Quantification was performed with a Thermo Scientific Xcalibur 4.0.27.19 using accurate masses (<5 parts per million mass error; [M + H]^+ of 958.1853 for GC-CA1 and 758.3270 for the internal standard, respectively)[22],[23]. […] Pharmacokinetic parameters, including the area under the plasma concentration–time curve from time 0 to the last quantifiable time point (AUClast), the area under the plasma concentration–time curve from time 0 to infinity (AUCinf), the maximum concentration (Cmax), the time to reach the observed peak plasma concentration (tmax) and the terminal half-life (t1/2), were determined by non-compartmental analysis using Phoenix WinNonlin 6.4 build 8.1.0.3530 software (Pharsight).

CA monomer = conditions: ref Yant et al, Nat.Med, 2019;[4]; read-out: Binding Affinity (KD), CA monomer; cited from earlier work
[2] = ref Yant et al, Nat.Med, 2019;[4]; cited from earlier work
[3] = 100 mg/kg, Plasma GS-CA1 level, 100 mg/kg s.c., individual animals, unit inferred
[4] = 300 mg/kg, Plasma GS-CA1 level, 300 mg/kg s.c., individual animals, unit inferred

Compound: CC(C)(C#Cc1ccc(-c2ccc(Cl)c3c(NS(=O)(=O)C4CC4)nn(CC(F)F)c23)c([C@H](Cc2cc(F)cc(F)c2)NC(=O)Cn2nc(C(F)F)c3c2C(F)(F)[C@@H]2C[C@H]32)n1)S(C)(=O)=O [GS-CA1]
- concentration at 0.29 weeks ([1]; 100 mg/kg, Plasma GS-CA1 level, 100 mg/kg s.c., 0.29 weeks post dose, individual animals, unit inferred): 1160 nM
- concentration at 0.43 weeks [1, 3]: 910 nM
- concentration at 0.57 weeks [1, 3]: 487 nM
- concentration at 1 week [1, 3]: 353 nM
- concentration at 2 weeks ([1]; 100 mg/kg, Plasma GS-CA1 level, 100 mg/kg s.c., 2 weeks post dose, individual animals, unit inferred): 163 nM
- concentration at 3 weeks ([1]; 100 mg/kg, Plasma GS-CA1 level, 100 mg/kg s.c., 3 weeks post dose, individual animals, unit inferred): 114 nM
- concentration at 4 weeks [1, 3]: 138 nM
- concentration at 5 weeks ([1]; 100 mg/kg, Plasma GS-CA1 level, 100 mg/kg s.c., 5 weeks post dose, individual animals, unit inferred): 93.4 nM
- concentration at 6 weeks ([1]; 100 mg/kg, Plasma GS-CA1 level, 100 mg/kg s.c., 6 weeks post dose, individual animals, unit inferred): 84.9 nM
- concentration at 8 weeks [1, 3]: 36.4 nM
- concentration at 10 weeks [1, 3]: 40.7 nM
- concentration at 12 weeks ([1]; 100 mg/kg, Plasma GS-CA1 level, 100 mg/kg s.c., 12 weeks post dose, individual animals, unit inferred): 18 nM
- concentration at 0.006 weeks ([1]; 300 mg/kg, Plasma GS-CA1 level, 300 mg/kg s.c., 0.006 weeks post dose, individual animals, unit not given (Fig. 1b in nM)): 68.8 nM
- concentration at 0.43 weeks [1, 4]: 2000 nM
- concentration at 0.57 weeks [1, 4]: 1920 nM
- concentration at 1 week [1, 4]: 1310 nM
- concentration at 4 weeks [1, 4]: 338 nM
- concentration at 8 weeks [1, 4]: 198 nM
- concentration at 10 weeks [1, 4]: 109 nM
- concentration at 14 weeks ([1]; 300 mg/kg, Plasma GS-CA1 level, 300 mg/kg s.c., 14 weeks post dose, individual animals, unit inferred): 43.8 nM
- concentration at 7 day ([1]; plasma drug level, 100 and 300 mg/kg single s.c., by day 7): 400 to 1100 nM
- AUC(0-inf) ([1]; sc, 100 mg/kg): 333 µM·h
- F (based on AUCinf) ([1]; sc, 100 mg/kg): 92%
- Tmax ([1]; sc, 100 mg/kg): 36 h
- half-life ([1]; sc, 100 mg/kg): 600 h
- AUC(0-t) ([1]; sc, 100 mg/kg, AUC0-24h): 19.3 µM·h
- AUC(0-t) ([1]; sc, 100 mg/kg, AUC0-168h): 147 µM·h
- AUC(0-t) ([1]; sc, 100 mg/kg, AUC0-336h): 198 µM·h
- AUC(0-t) ([1]; sc, 100 mg/kg, AUC0-1008h): 279 µM·h
- AUC(0-t) ([1]; sc, 100 mg/kg, AUC0-1344h): 298 µM·h
- AUC(0-t) ([1]; sc, 100 mg/kg, AUC0-1680h): 310 µM·h
- AUC(0-inf) ([1]; sc, 300 mg/kg): 1120 ± 126 µM·h
- Cmax ([1]; sc, 300 mg/kg): 2710 ± 720 nM
- F (based on AUCinf) ([1]; sc, 300 mg/kg): 104 ± 12%
- Tmax ([1]; sc, 300 mg/kg): 48 ± 24 h
- half-life ([1]; sc, 300 mg/kg): 557 h
- AUC(0-t) ([1]; sc, 300 mg/kg, AUC0-24h): 25.2 ± 10.2 µM·h
- AUC(0-t) ([1]; sc, 300 mg/kg, AUC0-336h): 434 ± 114 µM·h
- AUC(0-t) ([1]; sc, 300 mg/kg, AUC0-1008h): 819 ± 77 µM·h
- AUC(0-t) ([1]; sc, 300 mg/kg, AUC0-1344h): 936 ± 91 µM·h
- AUC(0-t) ([1]; sc, 300 mg/kg, AUC0-1680h): 1010 ± 109 µM·h
- Kd (CA monomer): 3.9 nM
- T1/2, human cryopreserved hepatocytes [2]: 130 h
